Results taken from patent publication US8841309B2, “Substituted pyrazines and their use in the treatment of disease” (Boehringer Ingelheim International GmbH, priority 2012, dated 2014).
pIC50: −log10 of the molar value. Where a name gives a salt, the structure may show the parent alone.

These compounds were tested against T1, ENaC (Mus musculus, UniProt Q61180+Q9WU38+Q9WU39) (assay: Ussing chamber: short circuit current (I_sc) in mouse kidney M-1 cells, amiloride-sensitive). Details: compound applied to apical solution, 37° C.
T1 construct: Mouse kidney M-1 cells were cultivated in DMEM containing 5% FCS and 5 μM dexamethasone; endogenous in cells; host or cells: mouse kidney M-1 cells
T1 sequence (Q61180 1-699): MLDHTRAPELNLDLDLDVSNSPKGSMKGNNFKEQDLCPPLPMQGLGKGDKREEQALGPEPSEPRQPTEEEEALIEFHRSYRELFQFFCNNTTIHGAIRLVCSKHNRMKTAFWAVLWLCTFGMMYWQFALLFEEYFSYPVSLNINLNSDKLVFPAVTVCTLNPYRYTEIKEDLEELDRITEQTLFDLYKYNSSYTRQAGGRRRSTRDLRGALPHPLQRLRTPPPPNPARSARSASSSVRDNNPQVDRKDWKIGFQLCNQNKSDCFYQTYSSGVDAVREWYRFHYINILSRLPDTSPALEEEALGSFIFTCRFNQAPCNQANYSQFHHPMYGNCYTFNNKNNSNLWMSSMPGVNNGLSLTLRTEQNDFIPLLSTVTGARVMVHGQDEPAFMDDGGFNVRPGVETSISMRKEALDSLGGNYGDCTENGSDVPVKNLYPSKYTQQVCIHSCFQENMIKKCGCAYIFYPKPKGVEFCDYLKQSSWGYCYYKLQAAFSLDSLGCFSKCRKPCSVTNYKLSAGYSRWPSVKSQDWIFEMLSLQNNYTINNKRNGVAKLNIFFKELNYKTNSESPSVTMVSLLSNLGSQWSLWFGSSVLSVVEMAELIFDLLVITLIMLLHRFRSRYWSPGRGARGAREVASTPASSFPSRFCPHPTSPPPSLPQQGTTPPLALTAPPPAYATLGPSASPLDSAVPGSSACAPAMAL
T1 sequence (Q9WU38 1-638): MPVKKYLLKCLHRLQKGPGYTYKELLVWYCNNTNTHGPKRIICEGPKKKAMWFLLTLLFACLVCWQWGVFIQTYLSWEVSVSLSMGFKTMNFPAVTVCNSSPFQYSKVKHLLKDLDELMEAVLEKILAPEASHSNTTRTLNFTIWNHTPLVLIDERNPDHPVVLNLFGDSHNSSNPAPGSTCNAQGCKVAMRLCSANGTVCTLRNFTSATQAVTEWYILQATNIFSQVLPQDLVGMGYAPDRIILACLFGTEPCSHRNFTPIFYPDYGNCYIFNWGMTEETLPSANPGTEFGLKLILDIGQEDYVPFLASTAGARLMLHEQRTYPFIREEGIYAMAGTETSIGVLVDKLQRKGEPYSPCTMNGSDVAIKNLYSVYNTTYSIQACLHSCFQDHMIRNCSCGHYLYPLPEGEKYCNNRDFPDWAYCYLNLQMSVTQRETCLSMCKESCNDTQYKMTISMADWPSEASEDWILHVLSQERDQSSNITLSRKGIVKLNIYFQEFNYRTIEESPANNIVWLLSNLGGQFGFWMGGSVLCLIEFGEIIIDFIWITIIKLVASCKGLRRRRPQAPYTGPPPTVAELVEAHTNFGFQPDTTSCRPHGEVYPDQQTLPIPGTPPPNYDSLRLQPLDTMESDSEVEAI
T1 sequence (Q9WU39 1-655): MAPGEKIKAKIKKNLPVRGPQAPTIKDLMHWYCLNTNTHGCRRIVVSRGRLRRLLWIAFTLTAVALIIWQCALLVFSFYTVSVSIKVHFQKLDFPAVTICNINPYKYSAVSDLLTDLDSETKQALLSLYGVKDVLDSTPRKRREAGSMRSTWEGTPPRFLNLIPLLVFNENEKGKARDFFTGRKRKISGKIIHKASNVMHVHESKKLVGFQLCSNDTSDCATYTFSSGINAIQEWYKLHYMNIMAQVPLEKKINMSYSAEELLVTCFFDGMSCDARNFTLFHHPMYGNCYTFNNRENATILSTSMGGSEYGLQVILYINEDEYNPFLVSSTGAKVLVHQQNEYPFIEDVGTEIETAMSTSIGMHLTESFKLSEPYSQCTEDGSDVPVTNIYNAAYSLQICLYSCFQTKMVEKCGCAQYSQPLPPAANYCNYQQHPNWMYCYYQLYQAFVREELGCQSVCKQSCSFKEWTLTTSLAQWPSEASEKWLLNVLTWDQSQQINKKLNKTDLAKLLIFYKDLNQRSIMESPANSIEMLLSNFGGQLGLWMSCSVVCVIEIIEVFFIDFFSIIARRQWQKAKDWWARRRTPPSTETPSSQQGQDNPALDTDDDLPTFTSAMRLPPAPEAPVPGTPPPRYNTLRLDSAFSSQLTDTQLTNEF
Assay type: cell-based
Method: Ussing Chamber: Mouse kidney M-1 cells were cultivated in DMEM containing 5% FCS and 5 μM dexamethasone for 10 to 12 days on polyester transwell filters. Filters were inserted into a teflon-coated well-plate which fit into the in-house ussing chamber system. Prior to measurement the medium of M-1 cells was replaced with Caco-2 transport buffer (Invitrogen, Germany). During measurements, the Ussing chamber temperature was kept at 37° C. Short circuit currents (I_sc) were measured in the voltage-clamp mode using an in-house built amplifier (Boehringer Ingelheim, Biberach) with the software package Lab View for data acquisition and analysis. The transepithelial electrical resistance (TEER) was determined by the application of voltage steps of ±5 mV every 5 sec. Compounds were administered at a final concentration of 3 μM or at increasing concentrations (1-3-10 μM) to the apical solution. At the end of each experiment the amiloride sensitive I_SC was measured by adding 3 μM amiloride to the apical compartment. Results are expressed as inhibition in percent of the amiloride effect or as IC50.
Compound `NC(=NC(=O)c1nc(Cl)c(N)nc1N)N[C@@H]1C[N+]2(Cc3ccc(SC(F)(F)F)cc3)CCC1CC2` [Example 48] has a pIC50 of 7.64.
For `CC(C)NC(=O)C[N+]12CCC(CC1)[C@H](NC(N)=NC(=O)c1nc(Cl)c(N)nc1N)C2` [Example 49], the pIC50 was 7.54.
In the case of `NC(=NC(=O)c1nc(Cl)c(N)nc1N)N[C@@H]1C[N+]2(Cc3cccnc3)CCC1CC2` [Example 50], the pIC50 was 6.98.
`NC(=NC(=O)c1nc(Cl)c(N)nc1N)N[C@@H]1C[N+]2(Cc3ccc(OC(F)(F)F)cc3)CCC1CC2` [Example 51] was tested, and the pIC50 was 7.05.
For `CSc1ccc(C[N+]23CCC(CC2)[C@H](NC(N)=NC(=O)c2nc(Cl)c(N)nc2N)C3)cc1` [Example 52], the pIC50 was 7.17.
`NC(=NC(=O)c1nc(Cl)c(N)nc1N)N[C@@H]1C[N+]2(CC3CCCCC3)CCC1CC2` [Example 53] gave a pIC50 of 7.15.
`NC(=NC(=O)c1nc(Cl)c(N)nc1N)N[C@@H]1C[N+]2(Cc3ccccc3OC(F)(F)F)CCC1CC2` [Example 54] was tested, and the pIC50 was 7.16.
Compound `NC(=NC(=O)c1nc(Cl)c(N)nc1N)N[C@@H]1C[N+]2(CC(=O)NCCc3ccccc3)CCC1CC2` [Example 55] has a pIC50 of 9.00.
`CSc1cccc(C[N+]23CCC(CC2)[C@H](NC(N)=NC(=O)c2nc(Cl)c(N)nc2N)C3)c1` [Example 56] showed a pIC50 of 7.92.
In the case of `NC(=NC(=O)c1nc(Cl)c(N)nc1N)N[C@@H]1C[N+]2(CC(=O)N3CCOCC3)CCC1CC2` [Example 57], the pIC50 was 7.15.
`NC(=NC(=O)c1nc(Cl)c(N)nc1N)N[C@@H]1C[N+]2(CC(=O)Nc3ccccc3)CCC1CC2` [Example 58] was tested, and the pIC50 was 7.60.
`COC(=O)c1ccc(CCNC(=O)C[N+]23CCC(CC2)[C@H](NC(N)=NC(=O)c2nc(Cl)c(N)nc2N)C3)cc1` [Example 61] was tested, and the pIC50 was 8.70.
For `NC(=NC(=O)c1nc(Cl)c(N)nc1N)N[C@@H]1C[N+]2(CC(=O)N3CCN(c4ccccn4)CC3)CCC1CC2` [Example 62], the pIC50 was 7.70.
With `N#Cc1ccc(CNC(=O)C[N+]23CCC(CC2)[C@H](NC(N)=NC(=O)c2nc(Cl)c(N)nc2N)C3)cc1` [Example 63] the pIC50 was 7.52.
For `CCOC(=O)N1CCC(NC(=O)C[N+]23CCC(CC2)[C@H](NC(N)=NC(=O)c2nc(Cl)c(N)nc2N)C3)CC1` [Example 64], the pIC50 was 7.12.
Compound `CN(CCc1ccccc1)C(=O)C[N+]12CCC(CC1)[C@H](NC(N)=NC(=O)c1nc(Cl)c(N)nc1N)C2` [Example 65] has a pIC50 of 8.70.
`NC(=NC(=O)c1nc(Cl)c(N)nc1N)N[C@@H]1C[N+]2(CC(=O)N3CCN(c4ncccn4)CC3)CCC1CC2` [Example 66] gave a pIC50 of 7.66.
In the case of `CC(C)(C)OC(=O)C1CCN(C(=O)C[N+]23CCC(CC2)[C@H](NC(N)=NC(=O)c2nc(Cl)c(N)nc2N)C3)CC1` [Example 67, (S)-1-[2-(4-tert-butoxycarbonyl-piperidin-1-yl)-2-oxo-ethyl]-3-[N′-(3,5-diamino-6-chloro-pyrazine-2-carbonyl)-guanidino]-1-azonia-bicyclo[2.2.2]octane; chloride], the pIC50 was 7.40.
Compound `CCNC(=O)C(c1ccccc1)[N+]12CCC(CC1)[C@H](NC(=N)NC(=O)c1nc(Cl)c(N)nc1N)C2` (stereo partly drawn) [Example 68.1, (S)-3-[N′-(3,5-Diamino-6-chloro-pyrazine-2-carbonyl)-guanidino]-1-(ethylcarbamoyl-phenyl-methyl)-1-azonia-bicyclo[2.2.2]octane bromide] has a pIC50 of 7.74.
`CC(C)=CC[N+]12CCC(CC1)[C@H](N/C(N)=N/C(=O)c1nc(Cl)c(N)nc1N)C2` [Example 69, (S)-3-[N′-(3,5-Diamino-6-chloro-pyrazine-2-carbonyl)-guanidino]-1-(3-methyl-but-2-enyl)-1-azoniabicyclo[2.2.2]octane chloride] showed a pIC50 of 6.73.
`C[N+]1(Cc2ccccc2)CCC(N/C(N)=N/C(=O)c2nc(Cl)c(N)nc2N)CC1` (stereo not drawn) [Example 70, 1-Benzyl-4-[N′-(3,5-diamino-6-chloro-pyrazine-2-carbonyl)-guanidino]-1-methyl-piperidinium chloride] gave a pIC50 of 6.97.
`COC(=O)c1ccc(C[N+]2(C)CCC(NC(N)=NC(=O)c3nc(Cl)c(N)nc3N)CC2)cc1` (stereo not drawn) [Example 70.1] gave a pIC50 of 7.19.
`CC[N+]1(Cc2ccccc2)CCC(NC(N)=NC(=O)c2nc(Cl)c(N)nc2N)CC1` (stereo not drawn) [Example 70.2] showed a pIC50 of 7.28.
In the case of `CCNC(=O)C[N+]1(C)CCC[C@@H](NC(N)=NC(=O)c2nc(Cl)c(N)nc2N)C1` (stereo partly drawn) [Example 70.3], the pIC50 was 6.59.
For `CC[N+]1(CC(=O)Nc2cccc(F)c2)CCC(NC(N)=NC(=O)c2nc(Cl)c(N)nc2N)CC1` (stereo not drawn) [Example 70.7], the pIC50 was 7.51.
Compound `C[N+]1(Cc2ccccc2)CC[C@H](NC(N)=NC(=O)c2nc(Cl)c(N)nc2N)C1` (stereo partly drawn) [Example 71.2] has a pIC50 of 6.95.
Work on `CN(C(=O)C[N+]1(C)CCC(NC(N)=NC(=O)c2nc(Cl)c(N)nc2N)CC1)c1ccccc1` (stereo not drawn) [Example 72.1] yielded a pIC50 of 6.86.
With `CN(Cc1ccccc1)C(=O)C[N+]1(C)CCC(NC(N)=NC(=O)c2nc(Cl)c(N)nc2N)CC1` (stereo not drawn) [Example 72.2] the pIC50 was 7.12.
In the case of `COC(=O)c1ccccc1NC(=O)C[N+]1(C)CCC(NC(N)=NC(=O)c2nc(Cl)c(N)nc2N)CC1` (stereo not drawn) [Example 72.3], the pIC50 was 7.66.
With `N=C(NC(=O)c1nc(Cl)c(N)nc1N)N[C@@H]1C[N+]2(CC(=O)N[C@@H](Cc3ccccc3)C(=O)O)CCC1CC2` [Example 73, (S)-1-[((S)-1-Carboxy-2-phenyl-ethylcarbamoyl)-methyl]-3-[N′-(3,5-diamino-6-chloro-pyrazine-2-carbonyl)-guanidino]-1-azonia-bicyclo[2.2.2]octane chloride hydrochloride] the pIC50 was 8.40.
`N=C(NC(=O)c1nc(Cl)c(N)nc1N)N[C@@H]1C[N+]2(CC(=O)N[C@H](Cc3ccccc3)C(=O)O)CCC1CC2` [Example 73.1, (S)-1-[((R)-1-Carboxy-2-phenyl-ethylcarbamoyl)-methyl]-3-[N′-(3,5-diamino-6-chloro-pyrazine-2-carbonyl)-guanidino]-1-azonia-bicyclo[2.2.2]octane; chloride hydrochloride] showed a pIC50 of 6.71.
Work on `N=C(NC(=O)c1nc(Cl)c(N)nc1N)N[C@@H]1C[N+]2(CC(=O)N3CCC(C(=O)O)CC3)CCC1CC2` [Example 73.2, (S)-1-[2-(4-Carboxy-piperidin-1-yl)-2-oxo-ethyl]-3-[N′-(3,5-diamino-6-chloro-pyrazine-2-carbonyl)-guanidino]-1-azonia-bicyclo[2.2.2]octane chloride hydrochloride] yielded a pIC50 of 6.57.
Work on `NC(=NC(=O)c1nc(Cl)c(N)nc1N)N[C@@H]1C[N+]2(CC(=O)NCC3(c4ccccc4)CCOCC3)CCC1CC2` [Example 74] yielded a pIC50 of 7.82.
